# In ChEMBL document CHEMBL1132786, “Chemical modification of nodulisporic acid A: preliminary structure-activity relationships” (2000):
# System: Ctenocephalides felis
# Assay: Systemic activity against adult cat fleas (Ctenocephalides felis)
# Assay type: functional
row,SMILES,"Effective concentration, systemic activity against adult cat fleas [p.p.m.]"
1,C=C(C)[C@H]1C(=O)c2c3c(cc4c5c(n1c24)[C@@]1(C)C(CC[C@H]2[C@](C)(/C=C/C=C(\C)C(=O)N4CCN(S(C)(=O)=O)CC4)[C@@H](O)CC[C@@]21C)C5)C1=CC(C)(C)OC(C)(C)C1[C@@H]3O (stereo not given in full) [NODULISPORAMIDE],~0.01
2,C=C(C)[C@H]1C(=O)c2c3c(cc4c5c(n1c24)[C@@]1(C)C(CC[C@H]2[C@](C)(C=O)[C@@H](O)CC[C@@]21C)C5)C1=CC(C)(C)OC(C)(C)C1[C@@H]3O (stereo not given in full),~10
3,C=C(C)[C@H]1C(=O)c2c3c(cc4c5c(n1c24)[C@@]1(C)C(CC[C@H]2[C@](C)(/C=C/C=C(\C)C(=O)O)[C@@H](O)CC[C@@]21C)C5)C1=CC(C)(C)OC(C)(C)C1[C@@H]3O (stereo not given in full) [NOD ACID A],1
4,C=C(C)[C@H]1C(=O)c2c3c(cc4c5c(n1c24)[C@@]1(C)C(CC[C@H]2[C@](C)(/C=C/C=C(\C)C(=O)N4CCN(C)CC4)[C@@H](O)CC[C@@]21C)C5)C1=CC(C)(C)OC(C)(C)C1[C@@H]3O (stereo not given in full),1
5,C=C(C)[C@H]1C(=O)c2c3c(cc4c5c(n1c24)[C@@]1(C)C(CC[C@H]2[C@](C)(/C=C/C=C(\C)C(=O)N4CCCCC4)[C@@H](O)CC[C@@]21C)C5)C1=CC(C)(C)OC(C)(C)C1[C@@H]3O (stereo not given in full),~1
6,C=C(C)[C@H]1C(=O)c2c3c(cc4c5c(n1c24)[C@@]1(C)C(CC[C@H]2[C@](C)(/C=C/C=C(\C)C(=O)N4CCN(C(=O)OCC)CC4)[C@@H](O)CC[C@@]21C)C5)C1=CC(C)(C)OC(C)(C)C1[C@@H]3O (stereo not given in full),0.1
7,C=C(C)[C@H]1C(=O)c2c3c(cc4c5c(n1c24)[C@@]1(C)C(CC[C@H]2[C@](C)(/C=C/C=C(\C)C(=O)OCCCO)[C@@H](O)CC[C@@]21C)C5)C1=CC(C)(C)OC(C)(C)C1[C@@H]3O (stereo not given in full),10
8,C=C(C)[C@H]1C(=O)c2c3c(cc4c5c(n1c24)[C@@]1(C)C(CC[C@H]2[C@](C)(/C=C/C=C(\C)C(=O)OCCO)[C@@H](O)CC[C@@]21C)C5)C1=CC(C)(C)OC(C)(C)C1[C@@H]3O (stereo not given in full),~1
9,C=C(C)[C@H]1C(=O)c2c3c(cc4c5c(n1c24)[C@@]1(C)C(CC[C@H]2[C@](C)(/C=C/C=C(\C)C(=O)NCCC(=O)O)[C@@H](O)CC[C@@]21C)C5)C1=CC(C)(C)OC(C)(C)C1[C@@H]3O (stereo not given in full),>10
10,C=C(C)[C@H]1C(=O)c2c3c(cc4c5c(n1c24)[C@@]1(C)C(CC[C@H]2[C@](C)(/C=C/C=C(\C)C(=O)NCCO)[C@@H](O)CC[C@@]21C)C5)C1=CC(C)(C)OC(C)(C)C1[C@@H]3O (stereo not given in full),0.5
11,C=C(C)[C@H]1C(=O)c2c3c(cc4c5c(n1c24)[C@@]1(C)C(CC[C@H]2[C@](C)(/C=C/C=C(\C)C(=O)OCCOCCO)[C@@H](O)CC[C@@]21C)C5)C1=CC(C)(C)OC(C)(C)C1[C@@H]3O (stereo not given in full),0.1
12,C=C(C)[C@H]1C(=O)c2c3c(cc4c5c(n1c24)[C@@]1(C)C(CC[C@H]2[C@](C)(/C=C/C=C(\C)C(=O)N(CC)CCC)[C@@H](O)CC[C@@]21C)C5)C1=CC(C)(C)OC(C)(C)C1[C@@H]3O (stereo not given in full),~0.1
13,C=C(C)[C@H]1C(=O)c2c3c(cc4c5c(n1c24)[C@@]1(C)C(CC[C@H]2[C@](C)(/C=C/C=C(\C)C(=O)NC(C)(C)C(=O)N(C)C)[C@@H](O)CC[C@@]21C)C5)C1=CC(C)(C)OC(C)(C)C1[C@@H]3O (stereo not given in full),0.01
14,C=C(C)[C@H]1C(=O)c2c3c(cc4c5c(n1c24)[C@@]1(C)C(CC[C@H]2[C@](C)(/C=C/C=O)[C@@H](O)CC[C@@]21C)C5)C1=CC(C)(C)OC(C)(C)C1[C@@H]3O (stereo not given in full),~10
15,C=C(C)[C@H]1C(=O)c2c3c(cc4c5c(n1c24)[C@@]1(C)C(CC[C@H]2[C@](C)(/C=C/C=C(\C)C(=O)NCCCCCC)[C@@H](O)CC[C@@]21C)C5)C1=CC(C)(C)OC(C)(C)C1[C@@H]3O (stereo not given in full),~0.5
16,C=C(C)[C@H]1C(=O)c2c3c(cc4c5c(n1c24)[C@@]1(C)C(CC[C@H]2[C@](C)(/C=C/C=C(\C)C(=O)Nc4ccc(F)cc4)[C@@H](O)CC[C@@]21C)C5)C1=CC(C)(C)OC(C)(C)C1[C@@H]3O (stereo not given in full),1
17,C=C(C)[C@H]1C(=O)c2c3c(cc4c5c(n1c24)[C@@]1(C)C(CC[C@H]2[C@](C)(/C=C/C=C(\C)C(=O)N(C)C)[C@@H](O)CC[C@@]21C)C5)C1=CC(C)(C)OC(C)(C)C1[C@@H]3O (stereo not given in full),~0.1
18,C=C(C)[C@H]1C(=O)c2c3c(cc4c5c(n1c24)[C@@]1(C)C(CC[C@H]2[C@](C)(/C=C/C=C(\C)C(=O)OC)[C@@H](O)CC[C@@]21C)C5)C1=CC(C)(C)OC(C)(C)C1[C@@H]3O (stereo not given in full),~10
19,C=C(C)[C@H]1C(=O)c2c3c(cc4c5c(n1c24)[C@@]1(C)C(CC[C@H]2[C@](C)(/C=C/C=C(\C)C(=O)NCC(N)=O)[C@@H](O)CC[C@@]21C)C5)C1=CC(C)(C)OC(C)(C)C1[C@@H]3O (stereo not given in full),10
20,C=C(C)[C@H]1C(=O)c2c3c(cc4c5c(n1c24)[C@@]1(C)C(CC[C@H]2[C@](C)(/C=C/C=C(\C)C(=O)NCc4ccc(Cl)cc4)[C@@H](O)CC[C@@]21C)C5)C1=CC(C)(C)OC(C)(C)C1[C@@H]3O (stereo not given in full),0.1
21,C=C(C)[C@H]1C(=O)c2c3c(cc4c5c(n1c24)[C@@]1(C)C(CC[C@H]2[C@](C)(/C=C/C=C(\C)C(=O)SCC)[C@@H](O)CC[C@@]21C)C5)C1=CC(C)(C)OC(C)(C)C1[C@@H]3O (stereo not given in full),>1
22,C=C(C)[C@H]1C(=O)c2c3c(cc4c5c(n1c24)[C@@]1(C)C(CC[C@H]2[C@](C)(/C=C/C=C(\C)C(=O)NC(C)(C)C(=O)OC)[C@@H](O)CC[C@@]21C)C5)C1=CC(C)(C)OC(C)(C)C1[C@@H]3O (stereo not given in full),1
23,C=C(C)[C@H]1C(=O)c2c3c(cc4c5c(n1c24)[C@@]1(C)C(CC[C@H]2[C@](C)(/C=C/C=C(\C)C(=O)NCCN(C)C)[C@@H](O)CC[C@@]21C)C5)C1=CC(C)(C)OC(C)(C)C1[C@@H]3O (stereo not given in full),10
24,C=C(C)[C@H]1C(=O)c2c3c(cc4c5c(n1c24)[C@@]1(C)C(CC[C@H]2[C@](C)(/C=C/C=C(\C)C(=O)NC)[C@@H](O)CC[C@@]21C)C5)C1=CC(C)(C)OC(C)(C)C1[C@@H]3O (stereo not given in full),~0.1
25,C=C(C)[C@H]1C(=O)c2c3c(cc4c5c(n1c24)[C@@]1(C)C(CC[C@H]2[C@](C)(/C=C/C=C(\C)C(N)=O)[C@@H](O)CC[C@@]21C)C5)C1=CC(C)(C)OC(C)(C)C1[C@@H]3O (stereo not given in full),~0.1
